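Interpolation was linear, between the two tested concentrations surrounding the appropriate level; five concentrations were tested over 48 hours in 96-well plates. The concentration for 50% growth inhibition is given as GI50.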 The source made the active and inactive calls. No stated cut-off is given here; in the data, active = GI50 up to about 1.1 µM and inactive = higher.
Experiments:
Test in all cases: NCI-60 cell line screen, 48 h
[1] = tested on: IGROV-1
[2] = tested on: BT-549
[3] = tested on: K562
[4] = tested on: HCC 2998
[5] = tested on: RPMI-8226
[6] = tested on: Hs-578T
[7] = tested on: HCT-116
[8] = tested on: TK-10
[9] = tested on: SNB-75
[10] = tested on: 786-0
[11] = tested on: OVCAR-4
[12] = tested on: RXF 393
[13] = tested on: MOLT-4
[14] = tested on: UACC-257
[15] = tested on: OVCAR-5
[16] = tested on: NCI-H226
[17] = tested on: SK-OV-3
[18] = tested on: EKVX
[19] = tested on: OVCAR-8
[20] = tested on: NCI-H522

Structure (SMILES) | GI50 [1] | GI50 [2] | GI50 [3] | GI50 [4] | GI50 [5] | GI50 [6] | GI50 [7] | GI50 [8] | GI50 [9] | GI50 [10] | GI50 [11] | GI50 [12] | GI50 [13] | GI50 [14] | GI50 [15] | GI50 [16] | GI50 [17] | GI50 [18] | GI50 [19] | GI50 [20]
CCN1c2cc(Br)cc3[nH]c(=O)n(c23)CCC1C (stereo not given) | 13.9 µM (inactive) | 6.85 µM (inactive) | 5.58 µM (inactive) | 15.6 µM (inactive) | 10.3 µM (inactive) | 3.46 µM (inactive) | 14.8 µM (inactive) | 15.9 µM (inactive) | 12.3 µM (inactive) | 14.3 µM (inactive) | 20 µM (inactive) | 11.6 µM (inactive) | 4.32 µM (inactive) | 17.4 µM (inactive) | 20.2 µM (inactive) | 15.8 µM (inactive) | 19.4 µM (inactive) | 1.43 µM (inactive) | 14.4 µM (inactive) | 
Cc1cccc(NC(=O)CCl)c1 | > 10 µM (inactive) | > 10 µM (inactive) | 6.11 µM (inactive) | > 10 µM (inactive) | > 10 µM (inactive) | > 10 µM (inactive) | 6.95 µM (inactive) | > 10 µM (inactive) |  | 3.67 µM (inactive) | 3.29 µM (inactive) | 8.49 µM (inactive) | > 10 µM (inactive) | > 10 µM (inactive) | > 10 µM (inactive) | 7.36 µM (inactive) | > 10 µM (inactive) | > 10 µM (inactive) | 9.53 µM (inactive) | 1.95 µM (inactive)
CC(=O)OCC(=O)[C@@]12OC(C)(C)O[C@@H]1C[C@H]1[C@@H]3CC=C4C[C@@H](O)CC[C@]4(C)[C@H]3CC[C@@]12C | 50.5 µM (inactive) | 31.6 µM (inactive) | > 100 µM (inactive) |  | 59.8 µM (inactive) | 22.4 µM (inactive) | 68.1 µM (inactive) | 40.3 µM (inactive) | 13.9 µM (inactive) | 41.4 µM (inactive) | > 100 µM (inactive) | 19.9 µM (inactive) | > 100 µM (inactive) | > 100 µM (inactive) | > 100 µM (inactive) | > 100 µM (inactive) | 38.3 µM (inactive) | 29.6 µM (inactive) | 36.7 µM (inactive) | 57.9 µM (inactive)
CC(=O)OCCC1c2ccccc2-n2nc(-c3ccccc3)c(O)c21 (stereo not given) | > 10 µM (inactive) | 17.1 µM (inactive) | 10.8 µM (inactive) | 24.8 µM (inactive) | 8.07 µM (inactive) | 19.5 µM (inactive) | 16.5 µM (inactive) | 22.1 µM (inactive) | 20.8 µM (inactive) | 18.6 µM (inactive) | 14.3 µM (inactive) | 12.3 µM (inactive) | 9.66 µM (inactive) | 16.8 µM (inactive) | 19.3 µM (inactive) | 26 µM (inactive) |  | 15.9 µM (inactive) | 15.7 µM (inactive) | 16.6 µM (inactive)
CC(C)(OCc1ccccc1)c1ccccc1P(c1ccccc1)c1ccccc1 | 50.1 µM (inactive) | 28.8 µM (inactive) | 45.3 µM (inactive) |  | 4.04 µM (inactive) | 47.9 µM (inactive) | 40 µM (inactive) | 37.1 µM (inactive) | > 100 µM (inactive) | 66.4 µM (inactive) | 31.3 µM (inactive) | > 100 µM (inactive) | 17.2 µM (inactive) | 22.3 µM (inactive) | > 100 µM (inactive) | 69.2 µM (inactive) | > 100 µM (inactive) | 32.9 µM (inactive) | 39.9 µM (inactive) | 42.8 µM (inactive)
CCOC(=O)CNC(=O)C(CSC(=O)N(O)c1ccc(Cl)cc1)NC(=O)CCC(N)C(=O)OCC (stereo not given) | 4.14 µM (inactive) | > 50 µM (inactive) | 11.8 µM (inactive) | 4.75 µM (inactive) | 12.1 µM (inactive) | 1.9 µM (inactive) | > 50 µM (inactive) |  |  | > 50 µM (inactive) |  | > 50 µM (inactive) | 19.3 µM (inactive) | > 50 µM (inactive) | > 50 µM (inactive) | 1.32 µM (inactive) | > 50 µM (inactive) | 12.5 µM (inactive) | > 50 µM (inactive) | 
CC(=O)OC1(C)CC(C)C(=O)C(C(O)CC2CC(=O)NC(=O)C2)C1 (stereo not given) | 0.031 µM (active) | 0.0334 µM (active) | 0.0178 µM (active) | 0.01 µM (active) | 0.0118 µM (active) | 0.0223 µM (active) | 0.00743 µM (active) | 0.0859 µM (active) | 0.504 µM (active) | 0.0204 µM (active) | 0.0184 µM (active) | 0.01 µM (active) | 0.00444 µM (active) | 0.0262 µM (active) | 0.0206 µM (active) | 0.0448 µM (active) |  | 0.0253 µM (active) | 0.0122 µM (active) | 0.00357 µM (active)

Reference: ChEMBL document CHEMBL1201862, “PubChem BioAssay data set” (2004)
